The values below are quoted from earlier work in patent US10590413B2, “Chiral control” (WAVE LIFE SCIENCES LTD., priority 2012, dated 2020).

Like-named read-outs stand apart in the source and are kept apart here. [Rp] = phosphorothioate linkage, Rp; [5mC] = 5-methylcytosine

In this data set the test system is Mouse B Cells. To be noted: mean and std. dev. of at least 3 experiments, compared to wells with no added ODN, cited from earlier work.

In the case of “3Dg (DNA GAGAACGCTCCAGCACTGAT; chemistry not fully specified) [Oligonucleotide 3Dg]”, the “Stimulation Index, 3H Uridine” value is 6.1 ± 1.5. Further, under “US 6,239,116 Table 1”, the “Stimulation Index, 3H Uridine” value is 6.1 ± 1.5 and the “Stimulation Index, IgM Production” value was 18.6 ± 1.5.
Turning to “4d (DNA TCTTCGAA; chemistry not fully specified) [Oligonucleotide 4d]”, the “Stimulation Index, 3H Uridine” value is given as 1.3 ± 0.2. The “Stimulation Index, 3H Uridine” value (US 6,239,116 Table 1) was 1.3 ± 0.2.
As to “4h (DNA TCAACGTC; chemistry not fully specified) [Oligonucleotide 4h]”, the “Stimulation Index, 3H Uridine” value is 1.2 ± 0.2. For the same substance, the “Stimulation Index, 3H Uridine” value (US 6,239,116 Table 1) was 1.2 ± 0.2.
For “3D (DNA GAGAACGCTGGACCTTCCAT; chemistry not fully specified) [Oligonucleotide 3D]”, the “Stimulation Index, 3H Uridine” value is on record as 4.9 ± 0.5. In addition, for the setting “US 6,239,116 Table 1”, the “Stimulation Index, 3H Uridine” value is reported as 4.9 ± 0.5 and the “Stimulation Index, IgM Production” value is given as 19.9 ± 3.6.
Regarding “4c (DNA TCATCGAT; chemistry not given here) [Oligonucleotide 4c]”, the “Stimulation Index, 3H Uridine” value is 2.7 ± 1.0. Besides, the “Stimulation Index, 3H Uridine” value (US 6,239,116 Table 1) is recorded as 2.7 ± 1.0.
For the substance “3Md (DNA TCCATGACGTTCCTGATGCT; chemistry not given here) [Oligonucleotide 3Md]”, the “Stimulation Index, 3H Uridine” value is listed as 17.2 ± 9.4. The “Stimulation Index, 3H Uridine” value (US 6,239,116 Table 1) is 17.2 ± 9.4.
“3Db (DNA GAGAACGCTCGACCTTCGAT; chemistry not fully specified) [Oligonucleotide 3Db]”: the “Stimulation Index, 3H Uridine” value was 10.1 ± 2.8. For the setting “US 6,239,116 Table 1”, the “Stimulation Index, 3H Uridine” value is listed as 10.1 ± 2.8 and the “Stimulation Index, IgM Production” value was 25.4 ± 0.8.
For the substance “1d (DNA GCATGACGTTGAGCT; DNA, backbone not given here; further chemistry not fully specified) [Oligonucleotide 1d]”, the “Stimulation Index, 3H Uridine” value is reported as 13.0 ± 2.3. Under “US 6,239,116 Table 1”, the “Stimulation Index, 3H Uridine” value was 13.0 ± 2.3 and the “Stimulation Index, IgM Production” value is recorded as 18.3 ± 7.5.
Take “3Me (DNA TCCATGTCGGTCCTGCTGAT; chemistry not given here) [Oligonucleotide 3Me]”: the “Stimulation Index, 3H Uridine” value was 3.6 ± 0.2. Further, for the setting “US 6,239,116 Table 1”, the “Stimulation Index, 3H Uridine” value is 3.6 ± 0.2 and the “Stimulation Index, IgM Production” value was 14.2 ± 5.2.
As for “All-(Rp)-d[GsCsCsTsCsAsGsTsCsTsGsCsTsTsCsGsCsAsCsC] (DNA GCCTCAGTCTGCTTCGCACC; DNA, all [Rp], methylation of C not given here) [Oligonucleotide 101]”, the “Stimulation Index, 3H Uridine” value is on record as 2.9 ± 0.2. Moreover, for the setting “US 6,239,116 Table 1”, the “Stimulation Index, 3H Uridine” value is 2.9 ± 0.2 and the “Stimulation Index, IgM Production” value was 13.6 ± 2.0.
As to “1c (DNA GCTAGACGTTAGCGT; chemistry not fully specified) [Oligonucleotide 1c]”, the “Stimulation Index, 3H Uridine” value is given as 10.3 ± 4.4. Moreover, for the setting “US 6,239,116 Table 1”, the “Stimulation Index, 3H Uridine” value was 10.3 ± 4.4 and the “Stimulation Index, IgM Production” value was 9.5 ± 1.8.
For “4e (DNA CAACGTT; chemistry not fully specified) [Oligonucleotide 4e]”, the “Stimulation Index, 3H Uridine” value is listed as 1.3 ± 0.2. Besides, for the setting “US 6,239,116 Table 1”, the “Stimulation Index, 3H Uridine” value is on record as 1.3 ± 0.2 and the “Stimulation Index, IgM Production” value is recorded as 1.1 ± 0.5.
For “3Mc (DNA TCCATGTCGGTCCTGATGCT; Z modified cytosine, further chemistry not given here) [Oligonucleotide 3Mc]”, the “Stimulation Index, 3H Uridine” value is 5.4 ± 1.5. Moreover, for the setting “US 6,239,116 Table 1”, the “Stimulation Index, 3H Uridine” value is 5.4 ± 1.5 and the “Stimulation Index, IgM Production” value is listed as 8.5 ± 2.6.
On to “4f (DNA CCAACGTT; chemistry not fully specified) [Oligonucleotide 4f]”, for which the “Stimulation Index, 3H Uridine” value is 3.9 ± 1.4. For the same substance, the “Stimulation Index, 3H Uridine” value (US 6,239,116 Table 1) was 3.9 ± 1.4.
Regarding “3Dc (DNA GAGCAAGCTGGACCTTCCAT; chemistry not fully specified) [Oligonucleotide 3Dc]”, the “Stimulation Index, 3H Uridine” value was 1.0 ± 0.1. Besides, for the setting “US 6,239,116 Table 1”, the “Stimulation Index, 3H Uridine” value is 1.0 ± 0.1 and the “Stimulation Index, IgM Production” value was 1.2 ± 0.5.
In the case of “1b (DNA GCTAGACGTTAGCGT; Z modified cytosine, further chemistry not given here) [Oligonucleotide 1b]”, the “Stimulation Index, 3H Uridine” value is given as 1.2 ± 0.1. Besides, for the setting “US 6,239,116 Table 1”, the “Stimulation Index, 3H Uridine” value is on record as 1.2 ± 0.1 and the “Stimulation Index, IgM Production” value is given as 1.8 ± 0.0.
Consider “4b (DNA TCAGCGCT; chemistry not fully specified) [Oligonucleotide 4b]”, for which the “Stimulation Index, 3H Uridine” value was 4.5 ± 0.2. Also, under “US 6,239,116 Table 1”, the “Stimulation Index, 3H Uridine” value was 4.5 ± 0.2 and the “Stimulation Index, IgM Production” value is reported as 9.6 ± 3.4.
In the case of “4g (DNA AACGTTCT; chemistry not given here) [Oligonucleotide 4g]”, the “Stimulation Index, 3H Uridine” value was 1.4 ± 0.3. Also, where the note is “US 6,239,116 Table 1”, the “Stimulation Index, 3H Uridine” value is listed as 1.4 ± 0.3.
For “2d (DNA ATCGACTCTCGAGCGTTCTC; DNA, [5mC] at 18, backbone not given here) [Oligonucleotide 2d]”, the “Stimulation Index, 3H Uridine” value is listed as 7.4 ± 1.4. In addition, for the setting “US 6,239,116 Table 1”, the “Stimulation Index, 3H Uridine” value was 7.4 ± 1.4 and the “Stimulation Index, IgM Production” value is 27.7 ± 5.4.
“3Ma (DNA TCCATGCTGGTCCTGATGCT; chemistry not fully specified) [Oligonucleotide 3Ma]”: the “Stimulation Index, 3H Uridine” value is given as 0.9 ± 0.1. Moreover, for the setting “US 6,239,116 Table 1”, the “Stimulation Index, 3H Uridine” value is 0.9 ± 0.1 and the “Stimulation Index, IgM Production” value is listed as 1.8 ± 0.5.
For “2c (DNA ATCGACTCTCGAGCGTTCTC; chemistry not fully specified) [Oligonucleotide 2c]”, the “Stimulation Index, 3H Uridine” value was 3.1 ± 0.6. Under “US 6,239,116 Table 1”, the “Stimulation Index, 3H Uridine” value is listed as 3.1 ± 0.6 and the “Stimulation Index, IgM Production” value is 7.3 ± 1.4.
With “3Df (DNA GAGAACGATGGACCTTCCAT; chemistry not fully specified) [Oligonucleotide 3Df]”, the “Stimulation Index, 3H Uridine” value was 1.6 ± 0.1. Also, for the setting “US 6,239,116 Table 1”, the “Stimulation Index, 3H Uridine” value is on record as 1.6 ± 0.1 and the “Stimulation Index, IgM Production” value is recorded as 7.7 ± 0.4.
